Data taken from patent publication US11866414B2, “Substituted heterocyclic compounds” (BRISTOL-MYERS SQUIBB COMPANY, priority 2021, dated 2024).

Columns and labels:
[1] = system: IFNα-induced STAT phosphorylation (pSTAT5); assay: IFNα-induced STAT phosphorylation in human whole blood; format: cell-based; settings: 1 h compound, 1000 U/mL IFNα A/D 15 min, CD3 positive population, read-out: Human Whole blood IFNa pSTAT5 IC50
Method: IFNα-Induced STAT Phosphorylation in Human Whole Blood
After an hour long incubation with compound, human whole blood (drawn with ACD-A as anticoagulant) was stimulated with 1000 U/mL recombinant human IFNα A/D (R&D Systems 11200-2) for 15 min. The stimulation was stopped by adding Fix/Lyse buffer (BD 558049). Cells were stained with a CD3 FITC antibody (BD 555916), washed, and permeabilized on ice using Perm III buffer (BD 558050). Cells were then stained with an Alexa-Fluor 647 pSTAT5 (pY694) antibody (BD 612599) for 60 min prior to analysis on the iQue Plus. The amount of pSTAT5 expression was quantitated by median fluorescence intensity after gating on the CD3 positive population.

in vitro = settings: human, Caco-2, pH 7.4

| Compound | IC50 [1] [µM] | Papp A→B at 2 h, 3 μM (in vitro) [nm/s] | efflux ratio at 2 h, 3 μM (in vitro) |
| --- | --- | --- | --- |
| [2H]C([2H])([2H])NC(=O)c1nnc(Nc2ccc(C(C)(C)O)cn2)cc1Nc1nccc(-c2cnn(C)n2)c1OC [Example 65, 6-{[5-(2-hydroxypropan-2-yl)pyridin-2-yl]amino}-4-{[3-methoxy-4-(2-methyl-2H-1,2,3-triazol-4-yl)pyridin-2-yl]amino}-N—(^2H3)methylpyridazine-3-carboxamide] | 0.004 | 117 | 1.6 |
| [2H]C([2H])([2H])NC(=O)c1nnc(NC(=O)N(C)C)cc1Nc1nccc(-c2cnn(C)n2)c1OC [Example 39, 6-(3,3-dimethylureido)-4-((3-methoxy-4-(2-methyl-2H-1,2,3-triazol-4-yl)pyridin-2-yl)amino)-N-(methyl-d3)pyridazine-3-carboxamide] | 0.42 | 188 | 0.4 |
| [2H]C([2H])([2H])NC(=O)c1nnc(NC(=O)[C@H]2C[C@@H]2C)cc1Nc1nc(C)cc(-c2cnn(C)n2)c1OC [Example 48, 4-((3-methoxy-6-methyl-4-(2-methyl-2H-1,2,3-triazol-4-yl)pyridin-2-yl)amino)-N-(methyl-d3)-6-((1S,2S)-2-methylcyclopropane-1-carboxamido)pyridazine-3-carboxamide] | 6.8 | 301 | 0.3 |
| [2H]C([2H])([2H])NC(=O)c1nnc(NC(=O)C2CC2)cc1Nc1ccc(C)c(-c2cnn(C)n2)c1OC [Example 33, 6-(cyclopropanecarboxamido)-4-((2-methoxy-4-methyl-3-(2-methyl-2H-1,2,3-triazol-4-yl)phenyl)amino)-N-(methyl-d3)pyridazine-3-carboxamide] | 0.08 | 345 | 0.8 |
| [2H]C([2H])([2H])NC(=O)c1nnc(NC(=O)C2CC2)cc1Nc1c(F)ccc(-c2cnn(C)n2)c1OC [Example 22, 6-(cyclopropanecarboxamido)-4-((6-fluoro-2-methoxy-3-(2-methyl-2H-1,2,3-triazol-4-yl)phenyl)amino)-N-(methyl-d3)pyridazine-3-carboxamide] | 0.33 | 511 | 0.7 |
| [2H]C([2H])([2H])NC(=O)c1nnc(NC(=O)C2CC2)cc1Nc1cccc(-c2nn(C)nc2CC)c1OC [Example 20, 6-(cyclopropanecarboxamido)-4-((3-(5-ethyl-2-methyl-2H-1,2,3-triazol-4-yl)-2-methoxyphenyl)amino)-N-(methyl-d3)pyridazine-3-carboxamide] | 0.21 | 170 | 1.1 |
| [2H]C([2H])([2H])NC(=O)c1nnc(Nc2cc(C(C)(C)O)ccn2)cc1Nc1nccc(-c2cnn(C)n2)c1OC [Example 67, 6-{[4-(2-hydroxypropan-2-yl)pyridin-2-yl]amino}-4-{[3-methoxy-4-(2-methyl-2H-1,2,3-triazol-4-yl)pyridin-2-yl]amino}-N—(^2H3)methylpyridazine-3-carboxamide] | 0.086 | 286 | 0.9 |
| [2H]C([2H])([2H])NC(=O)c1nnc(NC(=O)[C@@H]2C[C@H]2F)cc1Nc1cccc(-c2cnn(C)n2)c1OC [Example 29, 6-((1S,2R)-2-fluorocyclopropane-1-carboxamido)-4-((2-methoxy-3-(2-methyl-2H-1,2,3-triazol-4-yl)phenyl)amino)-N-(methyl-d3)pyridazine-3-carboxamide] | 0.05 | 379 | 0.5 |
| [2H]C([2H])([2H])NC(=O)c1nnc(Nc2cc(C)n(C)n2)cc1Nc1nccc(-c2cnn(C)n2)c1OC [Example 68, 6-[(1,5-dimethyl-1H-pyrazol-3-yl)amino]-4-{[3-methoxy-4-(2-methyl-2H-1,2,3-triazol-4-yl)pyridin-2-yl]amino}-N—(^2H3)methylpyridazine-3-carboxamide] | 0.29 | 594 | 0.4 |
| [2H]C([2H])([2H])NC(=O)c1nnc(NC(=O)C2CC2)cc1Nc1cc(C(=O)OC(C)C)cc(-c2cnn(C)n2)c1OC [Example 34, isopropyl 3-((6-(cyclopropanecarboxamido)-3-((methyl-d3)carbamoyl)pyridazin-4-yl)amino)-4-methoxy-5-(2-methyl-2H-1,2,3-triazol-4-yl)benzoate] | 0.16 | 209 | 0.3 |
| [2H]C([2H])([2H])NC(=O)c1nnc(NC(=O)CCCF)cc1Nc1nccc(-c2cnn(C)n2)c1OC [Example 45, 6-(4-fluorobutanamido)-4-{[3-methoxy-4-(2-methyl-2H-1,2,3-triazol-4-yl)pyridin-2-yl]amino}-N—(^2H3)methylpyridazine-3-carboxamide] | 0.06 | 58 | 0.5 |
| [2H]C([2H])([2H])NC(=O)c1nnc(NC(=O)C2CC2)cc1Nc1cc(CC)cc(-c2cnn(C)n2)c1OC [Example 21, 6-(cyclopropanecarboxamido)-4-((5-ethyl-2-methoxy-3-(2-methyl-2H-1,2,3-triazol-4-yl)phenyl)amino)-N-(methyl-d3)pyridazine-3-carboxamide] | 0.23 | 336 | 0.5 |
| [2H]C([2H])([2H])NC(=O)c1nnc(NC(=O)C2CC2)cc1Nc1nc(C)cc(-c2cnn(C)n2)c1OC [Example 46, 6-(cyclopropanecarboxamido)-4-((3-methoxy-6-methyl-4-(2-methyl-2H-1,2,3-triazol-4-yl)pyridin-2-yl)amino)-N-(methyl-d3)pyridazine-3-carboxamide] | 0.01 | 381 | 0.4 |
| [2H]C([2H])([2H])NC(=O)c1nnc(NC(=O)C2CC2)cc1Nc1nccc(-c2cnn(C([2H])([2H])[2H])n2)c1OC [Example 57, 6-(cyclopropane-carboxamido)-4-((3-methoxy-4-(2-(methyl-d3)-2H-1,2,3-triazol-4-yl)pyridin-2-yl)amino)-N-(methyl-d3)pyridazine-3-carboxamide] | 0.01 | 816 | 0.4 |
| [2H]C([2H])([2H])NC(=O)c1nnc(NC(=O)C2CC2)cc1Nc1cc(COC)cc(-c2cnn(C)n2)c1OC [Example 35, 6-(Cyclopropanecarboxamido)-4-((2-methoxy-5-(methoxymethyl)-3-(2-methyl-2H-1,2,3-triazol-4-yl)phenyl)amino)-N-(methyl-d3)pyridazine-3-carboxamide] | 0.02 | 429 | 0.6 |
| [2H]C([2H])([2H])NC(=O)c1nnc(NC(=O)OCC)cc1Nc1cccc(-c2cnn(C)n2)c1OC [Example 28, ethyl (5-((2-methoxy-3-(2-methyl-2H-1,2,3-triazol-4-yl)phenyl)amino)-6-((methyl-d3)carbamoyl)pyridazin-3-yl)carbamate] | 0.37 | 280 | 0.5 |
| [2H]C([2H])([2H])NC(=O)c1nnc(NC(=O)[C@@H]2C[C@@H]2F)cc1Nc1nc(C)cc(-c2cnn(C)n2)c1OC [Example 69, 6-((1S,2S)-2-fluorocyclopropane-1-carboxamido)-4-((3-methoxy-6-methyl-4-(2-methyl-2H-1,2,3-triazol-4-yl)pyridin-2-yl)amino)-N-(methyl-d3)pyridazine-3-carboxamide] | 0.003 | 362 | 0.6 |
